Assay results from patent US10987369B2, “Pdia4 protein as a target for diagnosis, monitoring and treatment of diabetes” (ACADEMIA SINICA, priority 2014, dated 2021).

Key:
[1] = test system: lepr^db/db mice; assay: Postprandial blood glucose in treated lepr db/db mice; type: in vivo, mouse; settings: cytopiloyne 2.5 mg/kg daily, FIG. 5C
Experimental: Their postprandial blood glucose was determined using a glucometer. […] Their postprandial blood glucose was determined using a glucometer.
To deplete pancreatic β cells in mice. […] Postprandial blood glucose was measured. […] Postprandial blood glucose was measured.

[2] = target: T1, GST-Pdia4 (Homo sapiens, UniProt P13667); assay: Bovine pancreatic trypsin inhibitor (BPTI)-based assay of disulfide isomerase activity; type: biochemical; settings: reduced BPTI as substrate, CP at different doses, FIG. 5B
T1 construct: made in house; host or cells: E. coli
T1 sequence (P13667 21-645): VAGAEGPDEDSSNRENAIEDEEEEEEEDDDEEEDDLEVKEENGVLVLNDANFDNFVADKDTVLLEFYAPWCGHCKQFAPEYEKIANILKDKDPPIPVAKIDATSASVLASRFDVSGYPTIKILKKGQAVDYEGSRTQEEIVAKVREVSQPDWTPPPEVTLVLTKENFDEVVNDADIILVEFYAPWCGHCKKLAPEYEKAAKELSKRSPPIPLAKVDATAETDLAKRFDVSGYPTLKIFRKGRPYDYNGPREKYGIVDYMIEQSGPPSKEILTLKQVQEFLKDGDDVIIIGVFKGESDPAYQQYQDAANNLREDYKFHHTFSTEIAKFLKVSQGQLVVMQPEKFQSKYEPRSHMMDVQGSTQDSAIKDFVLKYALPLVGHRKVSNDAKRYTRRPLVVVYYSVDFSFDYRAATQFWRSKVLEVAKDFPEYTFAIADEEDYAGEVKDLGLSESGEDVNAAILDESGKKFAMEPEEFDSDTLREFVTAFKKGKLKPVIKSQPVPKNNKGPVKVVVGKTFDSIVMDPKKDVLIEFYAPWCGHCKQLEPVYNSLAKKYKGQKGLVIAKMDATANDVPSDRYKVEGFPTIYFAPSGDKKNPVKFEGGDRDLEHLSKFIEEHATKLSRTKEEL
Experimental: Their postprandial blood glucose was determined using a glucometer. […] Their postprandial blood glucose was determined using a glucometer. Glutathione agarose bead-bound GST-Pdia4 (0.15 μg) were purified from E. coli bacteria.

[3] = test system: pdia4^−/−lepr^db/db mice; assay: Postprandial blood glucose in treated pdia4-/- lepr db/db mice; settings: metformin 60 mg/kg BW, rosiglitazone 20 mg/kg BW or both, daily, FIG. 5A
Experimental: (A) lepr^db/db and pdia4^−/−lepr^db/db mice received a daily dose of PBS vehicle (Veh), metformin (MET, 60 mg/kg BW) and metformin (MET, 60 mg/kg BW)/rosiglitazone (ROS, 20 mg/kg BW). Their postprandial blood glucose was determined using a glucometer. […] (C) lepr^db/db mice received a daily dose of PBS vehicle (Veh), cytopiloyne (CP, 2.5 mg/kg), cytopiloyne (CP, 2.5 mg/kg)/metformin (MET, 60 mg/kg BW) and cytopiloyne (CP, 2.5 mg/kg)/metformin (MET, 60 mg/kg BW)/rosiglitazone (Ros, 20 mg/kg BW). Their postprandial blood glucose was determined using a glucometer.
To treat mice, PBS or a combination of cytopiloyne (2.5 mg/kg/day), metformin (60 mg/kg/day), and metformin (60 mg/kg/day) plus rosiglitazone (20 mg/kg/day) were fed for the indicated time. Postprandial blood glucose was measured. To treat pdia4^−/−lepr^db/db mice, PBS, metformin (60 mg/kg/day), and metformin (60 mg/kg/day) plus rosiglitazone (20 mg/kg/day) were fed for the indicated time. Postprandial blood glucose was measured.
After the overnight fasting, the mice had free access to food for 2 hr. fasting or postprandial blood glucose levels of the mice were measured using an Elite glucometer (Bayer).

Compound	postprandial blood glucose [1]	enzymatic (disulfide isomerase) activity of Pdia4 [2]	enzymatic (disulfide isomerase) activity of Pdia4 ([2]; listed as Cytopiloyne)	hyperglycemia (postprandial blood glucose) [3]
CC#CC#CC#CC#CCCC(CO)O[C@@H]1O[C@H](CO)[C@@H](O)[C@H](O)[C@H]1O (stereo partly shown) [cytopiloyne]	lower postprandial blood glucose	inhibited Pdia4 activity	suppress the enzymatic activity of Pdia4	
CN(C)C(=N)N=C(N)N [metformin]				normalize hyperglycemia
